Test results from PubChem BioAssay AID330 (DTP/NCI, 2004).
“And” between values parts separate entries of the source, which are not always exact repeats. Equal values may be shown once. Toxic doses and inconclusive results are not listed. The calls were made as follows: active = survival T/C of 150% or more; inactive = T/C below 125% in these data. Peptide text beside a SMILES is read from it. * marks the point of attachment. Boc = CC(C)(C)OC(=O)*

Tested on: P388 leukemia ip, CD2F1 mice, survival T/C
Assay: NCI In Vivo Anticancer Drug Screen. Data for tumor model P388 Leukemia (intraperitoneal) in CD2F1 (CDF1) mice
Conditions: endpoint: median survival time, higher = longer survival
Summary of the method: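 Mice carrying the transplanted tumor received test compound or vehicle. Survival was recorded in each group, and the value is the treated-group measurement divided by that of the vehicle-treated control group.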

[1] = dose: 12.5 mg/kg/injection, schedule: Q01DX005 (ip), vehicle: saline
[2] = dose: 25.0 mg/kg/injection, schedule: Q01DX005 (ip), vehicle: saline
[3] = dose: 100.0 mg/kg/injection, schedule: Q01DX009 (ip), vehicle: saline with Tween-80
[4] = dose: 100.0 mg/kg/injection, schedule: Q04DX003 (ip), vehicle: saline with Tween-80
[5] = dose: 200.0 mg/kg/injection, schedule: Q04DX003 (ip), vehicle: saline with Tween-80
[6] = dose: 400.0 mg/kg/injection, schedule: Q04DX003 (ip), vehicle: saline with Tween-80
[7] = dose: 50.0 mg/kg/injection, schedule: Q01DX009 (ip), vehicle: Klucel (hydroxypropylcellulose) (HPC)
[8] = dose: 100.0 mg/kg/injection, schedule: Q01DX009 (ip), vehicle: Klucel (hydroxypropylcellulose) (HPC)
[9] = dose: 200.0 mg/kg/injection, schedule: Q01DX009 (ip), vehicle: Klucel (hydroxypropylcellulose) (HPC)
[10] = dose: 50.0 mg/kg/injection, schedule: Q01DX009 (ip), vehicle: saline
[11] = dose: 100.0 mg/kg/injection, schedule: Q01DX009 (ip), vehicle: saline
[12] = dose: 200.0 mg/kg/injection, schedule: Q01DX009 (ip), vehicle: saline
[13] = dose: 50.0 mg/kg/injection, schedule: Q01DX005 (ip), vehicle: Klucel (hydroxypropylcellulose) (HPC)
[14] = dose: 100.0 mg/kg/injection, schedule: Q01DX005 (ip), vehicle: Klucel (hydroxypropylcellulose) (HPC)
[15] = dose: 200.0 mg/kg/injection, schedule: Q01DX005 (ip), vehicle: Klucel (hydroxypropylcellulose) (HPC)
[16] = dose: 25.0 mg/kg/injection, schedule: Q01DX005 (ip), vehicle: saline with Tween-80
[17] = dose: 50.0 mg/kg/injection, schedule: Q01DX005 (ip), vehicle: saline with Tween-80
[18] = dose: 25.0 mg/kg/injection, schedule: Q01DX009 (ip), vehicle: Klucel (hydroxypropylcellulose) (HPC)
[19] = dose: 100.0 mg/kg/injection, schedule: Q01DX005 (ip), vehicle: saline with Tween-80
[20] = dose: 200.0 mg/kg/injection, schedule: Q01DX005 (ip), vehicle: saline with Tween-80
[21] = dose: 60.0 mg/kg/injection, schedule: Q01DX005 (ip), vehicle: saline with Tween-80
[22] = dose: 120.0 mg/kg/injection, schedule: Q01DX005 (ip), vehicle: saline with Tween-80

Measured: T/C

CN1CCN(c2cc3nc[nH]c(=O)c3cc2[N+](=O)[O-])CC1
inactive: dose: 50.0 mg/kg/injection, schedule: Q04DX003 (ip), vehicle: Klucel (hydroxypropylcellulose) (HPC) 99 % of control | dose: 100.0 mg/kg/injection, schedule: Q04DX003 (ip), vehicle: Klucel (hydroxypropylcellulose) (HPC) 104 % of control

CC1=CC(C)(C)N=C(N)N1
inactive: [1] 98 % of control | [2] 97 % of control | dose: 50.0 mg/kg/injection, schedule: Q01DX005 (ip), vehicle: saline 105 % of control and 91 % of control

Nc1c(OS(=O)(=O)c2ccccc2)cccc1OS(=O)(=O)c1ccccc1
inactive: dose: 50.0 mg/kg/injection, schedule: Q01DX009 (ip), vehicle: saline with Tween-80 91 % of control | [3] 90 % of control

O=C1CCCCCC1c1ccccc1 (centres undefined)
inactive: [4] 104 % of control | [5] 104 % of control | [6] 109 % of control

S=c1[nH]c2ccccc2n1CCc1ccncc1
inactive: dose: 25.0 mg/kg/injection, schedule: Q01DX007 (ip), vehicle: Klucel (hydroxypropylcellulose) (HPC) 104 % of control | dose: 25.0 mg/kg/injection, schedule: Q01DX008 (ip), vehicle: Klucel (hydroxypropylcellulose) (HPC) 103 % of control | dose: 50.0 mg/kg/injection, schedule: Q01DX007 (ip), vehicle: Klucel (hydroxypropylcellulose) (HPC) 104 % of control | dose: 50.0 mg/kg/injection, schedule: Q01DX008 (ip), vehicle: Klucel (hydroxypropylcellulose) (HPC) 106 % of control | [7] 93 % of control | dose: 100.0 mg/kg/injection, schedule: Q01DX007 (ip), vehicle: Klucel (hydroxypropylcellulose) (HPC) 99 % of control | dose: 100.0 mg/kg/injection, schedule: Q01DX008 (ip), vehicle: Klucel (hydroxypropylcellulose) (HPC) 100 % of control | [8] 94 % of control | dose: 200.0 mg/kg/injection, schedule: Q01DX007 (ip), vehicle: Klucel (hydroxypropylcellulose) (HPC) 106 % of control | dose: 200.0 mg/kg/injection, schedule: Q01DX008 (ip), vehicle: Klucel (hydroxypropylcellulose) (HPC) 106 % of control | [9] 94 % of control

Cc1cc[c]([Sb]2[O]C(CO)C(C(O)C(O)C(=O)O)[O]2)cc1 (centres undefined)
inactive: [2] 101 % of control and 104 % of control and 105 % of control

Cc1[nH]nc2c(Cc3ccccc3)n[nH]c(=O)c12
inactive: [7] 102 % of control | [8] 104 % of control | [9] 112 % of control

CS(C)(=O)=NS(=O)(=O)c1ccc([N+](=O)[O-])cc1
inactive: dose: 100.0 mg/kg/injection, schedule: Q04DX002 (ip), vehicle: Klucel (hydroxypropylcellulose) (HPC) 100 % of control | dose: 200.0 mg/kg/injection, schedule: Q04DX002 (ip), vehicle: Klucel (hydroxypropylcellulose) (HPC) 95 % of control | dose: 400.0 mg/kg/injection, schedule: Q04DX002 (ip), vehicle: Klucel (hydroxypropylcellulose) (HPC) 96 % of control

O=C(O)CC(OC(=O)CP(=O)(O)O)C(=O)O (centres undefined)
inactive: dose: 100.0 mg/kg/injection, schedule: Q04DX002 (ip), vehicle: saline 105 % of control | dose: 200.0 mg/kg/injection, schedule: Q04DX002 (ip), vehicle: saline 93 % of control | dose: 400.0 mg/kg/injection, schedule: Q04DX002 (ip), vehicle: saline 102 % of control

O=[N+]([O-])c1cccnc1Sc1nc2ccccc2[nH]1
inactive: [10] 96 % of control | [11] 101 % of control | [12] 101 % of control

COc1cc(/C=C/c2ccnnc2)cc(OC)c1OC
inactive: [10] 97 % of control | [11] 94 % of control | [12] 87 % of control

CCOC(=O)C(CCC(=O)O)NC(=O)C(CCSC)NC(=O)OC(C)(C)C (stereo not drawn) (Boc-Met-Glu-OEt; configuration not given here)
inactive: [13] 102 % of control | [14] 102 % of control | [15] 97 % of control

C/C(=N\NC(=S)Nc1ccc(C(=O)O)cc1)c1ccccn1
inactive: dose: 12.5 mg/kg/injection, schedule: Q01DX005 (ip), vehicle: saline with Tween-80 110 % of control | [16] 112 % of control | [17] 109 % of control and 114 % of control

O=C(O)c1ccc([N+](=O)[O-])o1
inactive: [18] 99 % of control | [7] 89 % of control | [8] 96 % of control

CCCC1(CC(=O)OCC)SCCN1C(=O)OCC (centres undefined)
inactive: [16] 102 % of control | [17] 102 % of control | [19] 102 % of control | [20] 102 % of control

Cc1cc(C(=O)O)c(C)c2c1sc1ccccc12
inactive: [21] 101 % of control | [22] 114 % of control

CSCCC(O)C(NC(=O)CCl)C(=O)O (centres undefined)
inactive: [10] 89 % of control and 96 % of control | [11] 98 % of control and 102 % of control | [12] 93 % of control and 95 % of control

CN1C(=O)NC2(CCCCC2)C1=O
inactive: [13] 105 % of control | [14] 100 % of control | [15] 100 % of control

C[C@]12CC[C@H]3C(=CCc4cc(O)ccc43)[C@@H]1C/C(=N\O)C2=O
inactive: [3] 115 % of control | [4] 100 % of control | dose: 200.0 mg/kg/injection, schedule: Q01DX009 (ip), vehicle: saline with Tween-80 120 % of control | [5] 104 % of control | [6] 95 % of control

Cc1cc(C)n(-c2ccc(S(=O)(=O)N3CCC(=O)N(Cc4ccccc4)C3=S)cc2)n1
inactive: [17] 100 % of control | [19] 93 % of control | [20] 93 % of control

C(=C\C1N=C1c1ccccc1)/c1ccc2ccccc2c1 (centres undefined)
inactive: dose: 50.0 mg/kg/injection, schedule: Q04DX002 (ip), vehicle: suspension in saline 99 % of control | dose: 100.0 mg/kg/injection, schedule: Q04DX002 (ip), vehicle: suspension in saline 97 % of control | dose: 200.0 mg/kg/injection, schedule: Q04DX002 (ip), vehicle: suspension in saline 99 % of control

Cn1c2cc(=O)ccc2c2c3nc4ccccc4[nH]c3cc(O)c21
inactive: [10] 98 % of control and 100 % of control | [11] 95 % of control and 91 % of control | [12] 100 % of control and 104 % of control

S=[As]1(c2cccc3ccccc23)c2ccccc2-c2ccccc21
inactive: dose: 30.0 mg/kg/injection, schedule: Q01DX009 (ip), vehicle: saline with Tween-80 106 % of control | dose: 60.0 mg/kg/injection, schedule: Q01DX009 (ip), vehicle: saline with Tween-80 100 % of control | dose: 120.0 mg/kg/injection, schedule: Q01DX009 (ip), vehicle: saline with Tween-80 110 % of control

Cc1nn(C)pc1P(C)(=S)n1nc(N(C)C)np1 (centres undefined)
inactive: [13] 98 % of control | [14] 103 % of control

Nc1cccnc1N
inactive: dose: 2.5 mg/kg/injection, schedule: Q01DX009 (ip), vehicle: saline 98 % of control | dose: 3.12 mg/kg/injection, schedule: Q01DX009 (ip), vehicle: saline 106 % of control | dose: 5.0 mg/kg/injection, schedule: Q01DX009 (ip), vehicle: saline 98 % of control | dose: 6.25 mg/kg/injection, schedule: Q01DX009 (ip), vehicle: saline 106 % of control | dose: 10.0 mg/kg/injection, schedule: Q01DX009 (ip), vehicle: saline 105 % of control | dose: 12.5 mg/kg/injection, schedule: Q01DX009 (ip), vehicle: saline 92 % of control and 93 % of control | dose: 20.0 mg/kg/injection, schedule: Q01DX009 (ip), vehicle: saline 101 % of control

COC(=O)COC(=O)CCCCC(=O)OCC(=O)OC
inactive: [10] 111 % of control | [11] 109 % of control | [12] 103 % of control

O=C(Nc1cccc(C(F)(F)F)c1)c1cc(Br)cc(Br)c1O
inactive: dose: 6.25 mg/kg/injection, schedule: Q01DX009 (ip), vehicle: Klucel (hydroxypropylcellulose) (HPC) 95 % of control | dose: 12.5 mg/kg/injection, schedule: Q01DX009 (ip), vehicle: Klucel (hydroxypropylcellulose) (HPC) 100 % of control | [18] 91 % of control

COc1ccc(-c2c(-c3ccccc3)c(=O)oc3cc(OC)ccc23)cc1
inactive: [21] 91 % of control | [22] 87 % of control and 88 % of control

CSc1nc2[nH]ncc2c(=O)[nH]1
inactive: [18] 101 % of control | [7] 99 % of control | [8] 93 % of control | [9] 86 % of control

CCCCN(CCCC)C(=N)c1ccc(OC)c(OC)c1
inactive: dose: 6.25 mg/kg/injection, schedule: Q01DX005 (ip), vehicle: saline 98 % of control | [1] 100 % of control | [2] 100 % of control
